These results are taken from patent publication US11613522B2, “Herbicidally active 3-phenylisoxazoline-5-carboxamides of tetrahydro- and dihydrofurancarboxamides” (BAYER AKTIENGESELLSCHAFT, priority 2017, dated 2023).

Molecules are shown by their SMILES.

The subject of one assay is Alopecurus myosuroides. In words: Pre-emergence herbicidal activity against ALOMY. In kind it is in vivo. The conditions noted are these: dosage 80 g/ha, scored visually after about 3 weeks vs untreated controls. An outline of the steps:
(§1)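 Pre-emergence pot test: seed → soil cover → spray of WP/EC formulation (aq., 0.5% additive, 600 l/ha) on soil surface → greenhouse ~3 wk → visual % activity vs untreated (100% = dead, 0% = as control).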
Regarding `C=C[C@]1(C(=O)N[C@@H]2CO[C@H](C(=O)NCCC(=O)OC)C2)CC(c2cc(F)cc(F)c2)=NO1` [Example I-20], the “Pre-emergence herbicidal activity in % against ALOMY” value worked out at 100%.

Another assay concerns Avena fatua. In words: Pre-emergence herbicidal activity against AVEFA. In kind it is in vivo. The conditions noted are these: dosage 80 g/ha, scored visually after about 3 weeks vs untreated controls. In short, it runs like this: as §1
Consider `C=C[C@]1(C(=O)N[C@@H]2CO[C@H](C(=O)NCCC(=O)OC)C2)CC(c2cc(F)cc(F)c2)=NO1` [Example I-20], for which the “Pre-emergence herbicidal activity in % against AVEVA (AVEFA)” value amounted to 100%.

The test system of the next assay is Echinochloa crus-galli. Nature of the assay: Pre-emergence herbicidal activity against ECHCG. In kind it is in vivo. The conditions noted are these: dosage 80 g/ha, scored visually after about 3 weeks vs untreated controls. From the text:
(§2) 1. Pre-emergence herbicidal action against harmful plants and crop plant compatibility Seeds of monocotyledonous and dicotyledonous weed plants and crop plants are placed in plastic or wood fiber pots and covered with soil. The compounds of the invention, formulated in the form of wettable powders (WP) or as emulsion concentrates (EC), are then applied onto the surface of the covering soil as aqueous suspension or emulsion with addition of 0.5% additive at a water application rate of 600 l/ha (converted). After the treatment, the pots are placed in a greenhouse and kept under good growth conditions for the trial plants. After about 3 weeks, the effect of the preparations is scored visually in comparison with untreated controls as percentages. For example, 100% activity=the plants have died, 0% activity=like control plants. [table]
As for `C=C[C@]1(C(=O)N[C@@H]2CO[C@H](C(=O)NCCC(=O)OC)C2)CC(c2cc(F)cc(F)c2)=NO1` [Example I-20], the “Pre-emergence herbicidal activity in % against ECHCG” value is recorded as 100%.

The next assay relates to Lolium rigidum. In words: Pre-emergence herbicidal activity against LOLRI. The conditions noted are these: dosage 80 g/ha, scored visually after about 3 weeks vs untreated controls. In kind it is in vivo.
Text: as §2
In the case of `C=C[C@]1(C(=O)N[C@@H]2CO[C@H](C(=O)NCCC(=O)OC)C2)CC(c2cc(F)cc(F)c2)=NO1` [Example I-20], the “Pre-emergence herbicidal activity in % against LOLRI” value stood at 100%.

In another assay the test system is Setaria viridis. Nature of the assay: Pre-emergence herbicidal activity against SETVI. Type of assay: in vivo. The note with it: dosage 80 g/ha, scored visually after about 3 weeks vs untreated controls.
Text: as §2
For `C=C[C@]1(C(=O)N[C@@H]2CO[C@H](C(=O)NCCC(=O)OC)C2)CC(c2cc(F)cc(F)c2)=NO1` [Example I-20], the “Pre-emergence herbicidal activity in % against SETVI” value amounted to 100%.

The next assay concerns Amaranthus retroflexus. Nature of the assay: Pre-emergence herbicidal activity against AMARE. Type of assay: in vivo. The note with it: dosage 80 g/ha, scored visually after about 3 weeks vs untreated controls.
Text: as §2
As to `C=C[C@]1(C(=O)N[C@@H]2CO[C@H](C(=O)NCCC(=O)OC)C2)CC(c2cc(F)cc(F)c2)=NO1` [Example I-20], the “Pre-emergence herbicidal activity in % against AMARE” value amounted to 100%.

In a further assay the test system is Pharbitis purpurea. Nature of the assay: Pre-emergence herbicidal activity against PHBPU. In kind it is in vivo. The note with it: dosage 80 g/ha, scored visually after about 3 weeks vs untreated controls.
Text: as §2
With `C=C[C@]1(C(=O)N[C@@H]2CO[C@H](C(=O)NCCC(=O)OC)C2)CC(c2cc(F)cc(F)c2)=NO1` [Example I-20], the “Pre-emergence herbicidal activity in % against PHBPU” value came out at 80%.

The subject of another assay is Polygonum convolvulus. Nature of the assay: Pre-emergence herbicidal activity against POLCO. In kind it is in vivo. The conditions noted are these: dosage 80 g/ha, scored visually after about 3 weeks vs untreated controls. An outline of the steps:
as §1
`C=C[C@]1(C(=O)N[C@@H]2CO[C@H](C(=O)NCCC(=O)OC)C2)CC(c2cc(F)cc(F)c2)=NO1` [Example I-20]: the “Pre-emergence herbicidal activity in % against POLCO” value is given as 100%.

The next assay concerns Stellaria media. In words: Pre-emergence herbicidal activity against STEME. In kind it is in vivo. The conditions noted are these: dosage 80 g/ha, scored visually after about 3 weeks vs untreated controls. In short, it runs like this: as §1
As for `C=C[C@]1(C(=O)N[C@@H]2CO[C@H](C(=O)NCCC(=O)OC)C2)CC(c2cc(F)cc(F)c2)=NO1` [Example I-20], the “Pre-emergence herbicidal activity in % against STEME” value is given as 100%.

Another assay has as its system Viola tricolor. Nature of the assay: Pre-emergence herbicidal activity against VIOTR. Type of assay: in vivo. The conditions noted are these: dosage 80 g/ha, scored visually after about 3 weeks vs untreated controls.
Text: as §2
Consider `C=C[C@]1(C(=O)N[C@@H]2CO[C@H](C(=O)NCCC(=O)OC)C2)CC(c2cc(F)cc(F)c2)=NO1` [Example I-20], for which the “Pre-emergence herbicidal activity in % against VIOTR” value is 100%.

The test system of the next assay is Hordeum murinum. In words: Pre-emergence herbicidal activity against HORMU. Type of assay: in vivo. The note with it: dosage 80 g/ha.
Text: as §2
For the compound `C=C[C@]1(C(=O)N[C@@H]2CO[C@H](C(=O)NCCC(=O)OC)C2)CC(c2cc(F)cc(F)c2)=NO1` [Example I-20], the “Pre-emergence herbicidal activity in % against HORMU” value is given as 100%.

The test system of a further assay is Alopecurus myosuroides. Nature of the assay: Post-emergence herbicidal activity against ALOMY. The conditions noted are these: dosage 320 g/ha, rated visually after about 3 weeks. In kind it is in vivo. An outline of the steps: (§3)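 Weeds grown in sandy loam in greenhouse, treated at one-leaf stage (2–3 weeks after sowing) by spraying WP or EC formulations as aqueous suspension/emulsion with 0.5% additive at 600 l/ha. Activity rated visually about 3 weeks later versus untreated controls (100% = plants dead, 0% = like control).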
`C=C[C@]1(C(=O)N[C@@H]2CO[C@H](C(=O)NCCC(=O)OC)C2)CC(c2cc(F)cc(F)c2)=NO1` [Example I-20]: the “Post-emergence herbicidal activity in % against ALOMY” value is recorded as 100%.

The test system of the next assay is Avena fatua. Nature of the assay: Post-emergence herbicidal activity against AVEFA. In kind it is in vivo. The conditions noted are these: dosage 320 g/ha, rated visually after about 3 weeks. In short, it runs like this: as §3
For `C=C[C@]1(C(=O)N[C@@H]2CO[C@H](C(=O)NCCC(=O)OC)C2)CC(c2cc(F)cc(F)c2)=NO1` [Example I-20], the “Post-emergence herbicidal activity in % against AVEFA” value amounted to 100%.

The next assay has as its system Echinochloa crus-galli. Nature of the assay: Post-emergence herbicidal activity against ECHCG. In kind it is in vivo. The conditions noted are these: dosage 320 g/ha, rated visually after about 3 weeks. In short, it runs like this:
as §3
For the compound `C=C[C@]1(C(=O)N[C@@H]2CO[C@H](C(=O)NCCC(=O)OC)C2)CC(c2cc(F)cc(F)c2)=NO1` [Example I-20], the “Post-emergence herbicidal activity in % against ECHCG” value was determined as 100%.

The subject of a further assay is Lolium rigidum. In words: Post-emergence herbicidal activity against LOLRI. In kind it is in vivo. The conditions noted are these: dosage 320 g/ha, rated visually after about 3 weeks. In short, it runs like this: as §3
As to `C=C[C@]1(C(=O)N[C@@H]2CO[C@H](C(=O)NCCC(=O)OC)C2)CC(c2cc(F)cc(F)c2)=NO1` [Example I-20], the “Post-emergence herbicidal activity in % against LOLRI” value came out at 100%.

The subject of another assay is Setaria viridis. Nature of the assay: Post-emergence herbicidal activity against SETVI. Type of assay: in vivo. The conditions noted are these: dosage 320 g/ha, rated visually after about 3 weeks. In short, it runs like this: as §3
Turning to `C=C[C@]1(C(=O)N[C@@H]2CO[C@H](C(=O)NCCC(=O)OC)C2)CC(c2cc(F)cc(F)c2)=NO1` [Example I-20], the “Post-emergence herbicidal activity in % against SETVI” value amounted to 90%.

The next assay concerns Abutilon theophrasti. Nature of the assay: Post-emergence herbicidal activity against ABUTH. Type of assay: in vivo. The note with it: dosage 320 g/ha, rated visually after about 3 weeks. An outline of the steps:
as §3
As for `C=C[C@]1(C(=O)N[C@@H]2CO[C@H](C(=O)NCCC(=O)OC)C2)CC(c2cc(F)cc(F)c2)=NO1` [Example I-20], the “Post-emergence herbicidal activity in % against ABUTH” value is 80%.

For another assay, the system named is Amaranthus retroflexus. Nature of the assay: Post-emergence herbicidal activity against AMARE. In kind it is in vivo. The note with it: dosage 320 g/ha, rated visually after about 3 weeks. An outline of the steps: as §3
On to `C=C[C@]1(C(=O)N[C@@H]2CO[C@H](C(=O)NCCC(=O)OC)C2)CC(c2cc(F)cc(F)c2)=NO1` [Example I-20], for which the “Post-emergence herbicidal activity in % against AMARE” value was 90%.

In a further assay the test system is Pharbitis purpurea. Nature of the assay: Post-emergence herbicidal activity against PHBPU. In kind it is in vivo. The conditions noted are these: dosage 320 g/ha, rated visually after about 3 weeks. An outline of the steps:
as §3
As for `C=C[C@]1(C(=O)N[C@@H]2CO[C@H](C(=O)NCCC(=O)OC)C2)CC(c2cc(F)cc(F)c2)=NO1` [Example I-20], the “Post-emergence herbicidal activity in % against PHBPU” value is on record as 90%.

Another assay concerns Polygonum convolvulus. Nature of the assay: Post-emergence herbicidal activity against POLCO. Type of assay: in vivo. The note with it: dosage 320 g/ha, rated visually after about 3 weeks. In short, it runs like this:
as §3
Regarding `C=C[C@]1(C(=O)N[C@@H]2CO[C@H](C(=O)NCCC(=O)OC)C2)CC(c2cc(F)cc(F)c2)=NO1` [Example I-20], the “Post-emergence herbicidal activity in % against POLCO” value is recorded as 80%.

The next assay relates to Stellaria media. Nature of the assay: Post-emergence herbicidal activity against STEME. Type of assay: in vivo. The conditions noted are these: dosage 320 g/ha, rated visually after about 3 weeks. In short, it runs like this:
as §3
`C=C[C@]1(C(=O)N[C@@H]2CO[C@H](C(=O)NCCC(=O)OC)C2)CC(c2cc(F)cc(F)c2)=NO1` [Example I-20]: the “Post-emergence herbicidal activity in % against STEME” value is 80%.

In another assay the test system is Viola tricolor. In words: Post-emergence herbicidal activity against VIOTR. Type of assay: in vivo. The note with it: dosage 320 g/ha, rated visually after about 3 weeks. In short, it runs like this: as §3
In the case of `C=C[C@]1(C(=O)N[C@@H]2CO[C@H](C(=O)NCCC(=O)OC)C2)CC(c2cc(F)cc(F)c2)=NO1` [Example I-20], the “Post-emergence herbicidal activity in % against VIOTR” value came out at 80%.

The test system of another assay is Veronica persica. Nature of the assay: Post-emergence herbicidal activity against VERPE. In kind it is in vivo. The conditions noted are these: dosage 320 g/ha, rated visually after about 3 weeks. In short, it runs like this:
as §3
In the case of `C=C[C@]1(C(=O)N[C@@H]2CO[C@H](C(=O)NCCC(=O)OC)C2)CC(c2cc(F)cc(F)c2)=NO1` [Example I-20], the “Post-emergence herbicidal activity in % against VERPE” value is given as 80%.

The test system of another assay is Hordeum murinum. In words: Post-emergence herbicidal activity against HORMU. The note with it: dosage 320 g/ha, rated visually after about 3 weeks. Type of assay: in vivo. An outline of the steps:
as §3
Consider `C=C[C@]1(C(=O)N[C@@H]2CO[C@H](C(=O)NCCC(=O)OC)C2)CC(c2cc(F)cc(F)c2)=NO1` [Example I-20], for which the “Post-emergence herbicidal activity in % against HORMU” value stood at 100%.
